Source: publication PMC10901950, “Neuroprotective and Anti-inflammatory Effects of Rubiscolin-6 Analogs with Proline Surrogates in Position 2” (Neurochemical Research, 2023)
Square brackets hold non-standard residues; d marks the D form. Ends that are not written are not given here. Peptide text beside a SMILES is read from it. Dmt = Cc1cc(O)cc(C)c1C[C@H](N)C(=O)O; Inp = O=C(O)C1CCNCC1

Tests used:
[1] = tested on: mTOR; experiment: Western blot, mTOR phosphorylation in 6-OHDA-treated SH-SY5Y cells; type: cell-based, human; conditions: peptide 1 and 10 µM, 24 h
Experimental: The neuroblastoma SH-SY5Y cells were grown in a 6-well plate and when 80–90% confluent treated with 6-OHDA (100 µM) for 24 h. Then cells were stimulated with peptides for 2.5, 5, 7.5 and 10 min (for AKT) or 24 h (for mTOR). When needed, a 30 min pre-incubation step with LY 294002 was included before analogs and 6-OHDA addition. Stimulation was terminated by aspiration of the medium. Cells were washed 2 times with ice-cold PBS, and then 200 µL of ice-cold lysis buffer [150 mM NaCl, 20 mM Tris–HCl, glycerol, 5 mM EDTA, 0.5 mM phenylmethylsulphonylfluoride (PMSF), 10% Triton X-100, 100 mM protease inhibitors, pH 7.4] was added. Cells were incubated on ice for 15 min. Lysates were then centrifuged at 12,000×g for 10 min at 4 °C, and the supernatants were used as the total cell lysates. The protein content in the supernatants was quantified using the Bio-Rad protein assay kit. […] Following six washes with TBS-T, the protein bands were detected with the Clarity Western ECL reagent from Bio-Rad. The band intensity was quantified by NIH ImageJ densitometric analysis. For quantification, specific phosphorylation was calculated as the ratio of phosphorylated AKT or mTOR signals to the total Akt or mTOR signal detected. […]

[2] = tested on: RAW 264.7 cells; experiment: Intracellular ROS generation in RAW 264.7 cells (not stimulated); type: cell-based, mouse; conditions: 0.1-10 µM, 24 h, DCFH-DA, unstimulated cells
Experimental: The detection of ROS generated in injured cells was evaluated using the 5(6)-carboxy-2ʹ,7ʹ-dichlorofluorescein diacetate (carboxy-H2DCFDA) reagent (Invitrogen, Bleiswijk, Netherlands). After incubation, cells were washed with ice-cold Phosphate-Buffer Saline (PBS). Then, the carboxyl-H2DCFDA (100 µL, 20 µM) reagent was added and incubated for 1 h at 37 °C. Finally, the fluorescence intensity was measured at wavelengths of […], and ROS levels were presented in percentage of control (non-treated cells).

[3] = tested on: SH-SY5Y cells; experiment: Cytotoxicity on SH-SY5Y cells (MTT); type: cell-based, human; conditions: 10 µM, 24 h
Experimental: The neuroprotective experiments were performed in an in vitro model of a human neuroblastoma cell line (SH-SY5Y) obtained from the German Collection of Microorganisms and Cell Cultures GmbH (DSMZ) Bank (ACC 209). Cells were cultured in Dulbecco’s Modified Eagle’s Medium: Nutrient Mixture F12 (DMEM:F12) supplemented with 1% antibiotic/antimycotic (Amphotericin B, Penicillin and Streptomycin) (Biowest, Nuaillé, France) and 10% (v/v) Fetal Bovine Serum (FBS) (Biowest, Riverside, MO, USA). The anti-inflammatory experiments were performed in an in vitro model of mouse macrophage-like RAW 264.7 cells, purchased from American Type Culture Collection (ATCC, Manassas, VA, USA). Cells were maintained in DMEM medium (Gibco™, Grand Island, NY) and supplemented with 10% bovine calf serum (BCS) (Gibco™, Grand Island, NY) and 1% penicillin–streptomycin (Sigma-Aldrich, St. Louis, MO, USA). Cell cultures were kept at 37 °C in 5% CO2/humidified air.
Cells were incubated with peptides (0.1–10 µM) for 24 h to assess their cytotoxic activity. […] The resulting absorbance was read in a microplate reader (Biotek, Epoch/2 microplate reader, Winooski, VT, USA) at 570 nm.
Cell metabolic activity (cytotoxicity) was calculated as the percentage of the value obtained for cells incubated with compounds compared to control cells treated with the medium.

CC(C)C[C@H](NC(=O)C1CCN(C(=O)[C@@H](N)Cc2ccc(O)cc2)CC1)C(=O)N[C@@H](CC(=O)O)C(=O)N[C@@H](CC(C)C)C(=O)N[C@@H](Cc1ccccc1)C(N)=O [analog 7, Tyr-Inp-Leu-Asp-Leu-Phe-NH2] (H-Y[Inp]LDLF-NH2)
phosphorylated mTOR compared with the 6-OHDA-injured group [1]: significant increase

YPLDLF [R-6, rubiscolin-6]
effect on intracellular ROS levels [2]: did not affect

Cc1cc(O)cc(C)c1C[C@H](N)C(=O)N1CCC(C(=O)N[C@@H](CC(C)C)C(=O)N[C@@H](CC(=O)O)C(=O)N[C@@H](CC(C)C)C(=O)N[C@@H](Cc2ccccc2)C(=O)O)CC1 [analog 5, Dmt-Inp-Leu-Asp-Leu-Phe-OH] (H-[Dmt][Inp]LDLF-OH)
phosphorylated mTOR compared with the 6-OHDA-injured group [1]: significant increase

YPLDLF-NH2 [analog 6, Tyr-Pro-Leu-Asp-Leu-Phe-NH2]
SH-SY5Y cell viability (cytotoxicity) [3]: significantly decreased
